Test results reported in article PMC13311170, “Ganaxolone, an approved therapy for CDKL5-deficiency disorder, is an inhibitor of PTP1B” (The Journal of Biological Chemistry, 2026).

Target: T1, PTP1B (Homo sapiens, UniProt P18031)
T1 construct: gene PTPN1; WT PTP1B containing a His-tag
T1 sequence (P18031 1-435): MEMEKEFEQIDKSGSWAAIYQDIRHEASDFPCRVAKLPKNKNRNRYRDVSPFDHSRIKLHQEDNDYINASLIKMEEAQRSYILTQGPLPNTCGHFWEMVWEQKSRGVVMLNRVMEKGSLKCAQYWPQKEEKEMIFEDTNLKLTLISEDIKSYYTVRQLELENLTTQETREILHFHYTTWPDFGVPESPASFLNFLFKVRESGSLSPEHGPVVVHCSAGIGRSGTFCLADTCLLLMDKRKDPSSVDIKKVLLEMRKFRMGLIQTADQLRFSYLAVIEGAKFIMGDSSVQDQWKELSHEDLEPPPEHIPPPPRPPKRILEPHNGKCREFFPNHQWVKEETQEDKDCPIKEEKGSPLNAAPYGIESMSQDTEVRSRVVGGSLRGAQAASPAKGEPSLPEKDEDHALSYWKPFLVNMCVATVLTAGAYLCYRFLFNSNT
Experiment: DiFMUP fluorescence phosphatase assay with […] purified PTP1B
Format: biochemical

Structure (SMILES): CC(=O)[C@H]1CC[C@H]2[C@@H]3CC[C@H]4C[C@](C)(O)CC[C@]4(C)[C@H]3CC[C@]12C [ganaxolone, 3α-Hydroxy-3β-methyl-5α-pregnan-20-one]
- IC50: 600 nM
